Data as given in patent US20020193252A1, “Weeding method with sodium hydrogen carbonate” (The Hiraoka Environmental Science Laboratory, priority 2001, published 2002).
Read-outs that look alike come from different tables or passages of the source.

Assays:
[1] = tested on: Weeds mainly consisting of Japanese nutmeg, Coix lacryma-jobi, Pueraria lobata and Solidago serotina; details: 70 g/L, 16 litter/m^2, 150 kgf/cm^2, 60 second/m^2; weeds about 60 cm; leaves turned yellow or black
[2] = tested on: Equisetum arvense and Taraxacum; details: 400 ml/m^2 sprayed on days 0,7,14,21, weeds cut on day 54
Excerpt: (§1) A mixture of Equisetum arvense and Taraxacum having an average height of about 5 cm and Imperata cylindrica having an average height of about 5 cm in a test field having an area of 0.5 m^2 in Yokohama-city, Kanagawa-prefecture, Japan were subjected to the following field weeding test from the last third of July to the first third of November. […] Incidentally, the area ratio of weeds was assumed as 100% when the weeds proliferated to such an extent that they completely concealed the soil surface.
(§2) A saturated aqueous solution of sodium hydrogen carbonate was sprayed to each test field in an amount of 400 ml/m^2 by a watering pot, and then sprayed in the same way after 7 days, 14 days and 21 days, respectively. The area ratio and average height of weeds were measured by the naked eye after 26 days from the start of spraying. The weeds were totally cut after 54 days from the start of spraying. Thereafter, the weeds were left to grow without spraying an aqueous solution of sodium hydrogen carbonate. The area ratio and average height of weeds were measured by the naked eye after 64 days, 67 days, 73 days, 78 days, 86 days, 91 days and 95 days, respectively, from the start of spraying. For comparison, a mixture of Equisetum arvense and Taraxacum and Imperata cylindrica, to which an aqueous solution of sodium hydrogen carbonate was not sprayed, were subjected to the same measurement with respect to an area ratio and an average height.

Imperata cylindrica = details: 400 ml/m^2 sprayed on days 0,7,14,21, weeds cut on day 54
Excerpt: as §1, §2

[3] = saturated aqueous solution
[4] = tested on: Equisetaceae weeds, Leguminosae weeds and wide leaves weeds
[5] = tested on: Gramineae weeds except for grass (Zoysia japonica); details: spraying once a week
[6] = tested on: Weeds mainly consisting of Pueraria lobata, Cayratia japonica and Solidago serotina; details: 80° C., 140 g/L, 16 litter/m^2, 150 kgf/cm^2, 60 second/m^2; weeds about 60 cm; leaves turned black
[7] = tested on: Equisetum arvense and Taraxacum; details: 400 mL/m^2; for Killing Rate of Weeds: after 9 days from spraying
Excerpt: (§3) A mixture of Equisetum arvense and Taraxacum having an average height of about 20 cm and grass having an average height of about 10 cm in a test field having an area of 0.5 m^2 in Yokohama-city, Kanagawa-prefecture, Japan were subjected to a field weeding test by spraying an aqueous solution of sodium hydrogen carbonate with a watering pot in the last third of October.
(§4) An aqueous solution of sodium hydrogen carbonate having a concentration of 2.5 weight %, 5.0 weight %, 8.0 weight % and 10.0 weight %, respectively, was uniformly sprayed to a mixture of Equisetum arvense and Taraxacum and grass in an amount of 400 mL/m^2 for each. […] The killing degree of the weeds was measured by the naked eye after 9 days from spraying to determine the killing rate of weeds in the same manner as in EXAMPLE 1.

grass = details: 400 mL/m^2; for Killing Rate of Weeds: after 9 days from spraying
Excerpt: as §3, §4

[8] = 2.5-10.0 weight % solution, last third of October

With `O=C([O-])O.[Na+]` [sodium hydrogen carbonate] the “state of weeds the next day of treatment” value [1] was “killed”, the “Area Ratio of Weeds” value ([2]; 0 days passed) was 50% and the “Average Height” value ([2]; 0 days passed) was 5 cm. For the same compound, the “Area Ratio of Weeds” value ([2]; 7 days passed) was 5%, the “Average Height” value ([2]; 7 days passed) was 0 cm and the “Area Ratio of Weeds” value ([2]; 14 days passed) was 5%. The “Average Height” value ([2]; 14 days passed) was 0 cm, the “Area Ratio of Weeds” value ([2]; 21 days passed) was 5% and the “Average Height” value ([2]; 21 days passed) was 0 cm. The “Area Ratio of Weeds” value ([2]; 26 days passed) was 5%, the “Average Height” value ([2]; 26 days passed) was 0 cm and the “Area Ratio of Weeds” value ([2]; 54 days passed) was 0%. The “Average Height” value ([2]; 54 days passed) was 0 cm, the “Area Ratio of Weeds” value ([2]; 64 days passed) was 0% and the “Average Height” value ([2]; 64 days passed) was 0 cm. The “Area Ratio of Weeds” value ([2]; 67 days passed) was 0%, the “Average Height” value ([2]; 67 days passed) was 0 cm and the “Area Ratio of Weeds” value ([2]; 73 days passed) was 5%. For the same compound, the “Average Height” value ([2]; 73 days passed) was 5 cm, the “Area Ratio of Weeds” value ([2]; 78 days passed) was 10% and the “Average Height” value ([2]; 78 days passed) was 7 cm. For the same compound, the “Area Ratio of Weeds” value ([2]; 86 days passed) was 10%, the “Average Height” value ([2]; 86 days passed) was 10 cm and the “Area Ratio of Weeds” value ([2]; 91 days passed) was 20%. The “Average Height” value ([2]; 91 days passed) was 10 cm, the “Area Ratio of Weeds” value ([2]; 95 days passed) was 20% and the “Average Height” value ([2]; 95 days passed) was 10 cm. The “Area Ratio of Weeds” value (Imperata cylindrica; 0 days passed) was 5%, the “Average Height” value (Imperata cylindrica; 0 days passed) was 5 cm and the “Area Ratio of Weeds” value (Imperata cylindrica; 7 days passed) was 10%. The “Average Height” value (Imperata cylindrica; 7 days passed) was 15 cm, the “Area Ratio of Weeds” value (Imperata cylindrica; 14 days passed) was 30% and the “Average Height” value (Imperata cylindrica; 14 days passed) was 25 cm. The “Area Ratio of Weeds” value (Imperata cylindrica; 21 days passed) was 50%, the “Average Height” value (Imperata cylindrica; 21 days passed) was 45 cm and the “Area Ratio of Weeds” value (Imperata cylindrica; 26 days passed) was 50%. For the same compound, the “Average Height” value (Imperata cylindrica; 26 days passed) was 50 cm, the “Area Ratio of Weeds” value (Imperata cylindrica; 54 days passed) was 0% and the “Average Height” value (Imperata cylindrica; 54 days passed) was 0 cm. The “Area Ratio of Weeds” value (Imperata cylindrica; 64 days passed) was 0%, the “Average Height” value (Imperata cylindrica; 64 days passed) was 0 cm and the “Area Ratio of Weeds” value (Imperata cylindrica; 67 days passed) was 0%. The “Average Height” value (Imperata cylindrica; 67 days passed) was 0 cm, the “Area Ratio of Weeds” value (Imperata cylindrica; 73 days passed) was 0% and the “Average Height” value (Imperata cylindrica; 73 days passed) was 0 cm. For the same compound, the “Area Ratio of Weeds” value (Imperata cylindrica; 78 days passed) was 5%, the “Average Height” value (Imperata cylindrica; 78 days passed) was 5 cm and the “Area Ratio of Weeds” value (Imperata cylindrica; 86 days passed) was 5%. For the same compound, the “Average Height” value (Imperata cylindrica; 86 days passed) was 7 cm, the “Area Ratio of Weeds” value (Imperata cylindrica; 91 days passed) was 5% and the “Average Height” value (Imperata cylindrica; 91 days passed) was 7 cm. The “Area Ratio of Weeds” value (Imperata cylindrica; 95 days passed) was 5%, the “Average Height” value (Imperata cylindrica; 95 days passed) was 10 cm and the pH [3] was “about 8.2”. For the same compound, the “time after spraying until weeds start to die” value ([4]; in autumn) was 4 to 5 days, the “time after spraying until weeds start to die” value ([4]; in summer) was 1 to 2 days and the “duration of spraying until weeds start to die” value [5] was 2-3 weeks. The “state of weeds the next day of treatment” value [6] was “killed”, the “time after spraying from which part of the weeds started to die with leaves turned black” value [7, 8] was 2 to 3 days and the “Killing Rate of Weeds” value ([7]; concentration 5.0 weight %) was 30%. For the same compound, the “Killing Rate of Weeds” value ([7]; concentration 8.0 weight %) was 65%, the “Killing Rate of Weeds” value ([7]; concentration 10.0 weight %) was 80% and the “Killing Rate of Weeds” value ([7]; concentration 25 weight %) was 10%. For the same compound, the “time after spraying from which part of grass started to die with leaves turned yellow” value (grass; [8]) was 2 to 3 days, the “Killing Rate of Weeds” value (grass; concentration 5.0 weight %) was 50% and the “Killing Rate of Weeds” value (grass; concentration 8.0 weight %) was 70%. The “Killing Rate of Weeds” value (grass; concentration 10.0 weight %) was 85% and the “Killing Rate of Weeds” value (grass; concentration 25 weight %) was 40%.
